# Experimental data: patent publication US8263108B2, “Zero-order prolonged release coaxial implants” (Durect Corporation, priority 2001, dated 2012)
# Assays:
# [1] = Release of interferon from implants incubated in phosphate buffered saline; type: physicochemical; conditions: 30 vol % NaCl/PCL tubing filled with 20 mg α-interferon suspension in SAIB, ends sealed
# Protocol: Using nitrogen gas as the core feed, a mixture comprising 30 vol % NaCl in PCL was extruded as described above through the outer ring of a coaxial die to form tubing having an overall diameter of about 3 mm. Implants containing α-interferon were prepared from the tubing by filling a short length of tubing with a suspension containing 20 mg of α-interferon in sucrose acetate isobutyrate (SAIB) and sealing the ends of the tube.
# The implants, when incubated in phosphate buffered saline, released interferon for several days.
# [2] = In vitro dissolution of cromolyn sodium coaxial implants; type: physicochemical; conditions: 50 wt % cromolyn/PCL core, PBS pH 7.4, 37° C.
# Protocol: Coaxial rods were produced by operating the two Randcastle extruders simultaneously. The core material (cromolyn/PCL) was fed through the center orifice of the die on the first extruder to form the implant core. […] Individual implants with a diameter of approximately 2 mm were cut to a length of 2 cm. The exposed ends were sealed with the same polymer as the membrane. Cromolyn release was determined in vitro using a simple dissolution test. Individual implants were placed in 4-oz amber jars with 40 mL of buffer (phosphate buffered saline, pH 7.4, with 0.05% sodium azide) and incubated at 37° C. Periodically, aliquots of buffer were removed and replaced with fresh buffer. The cromolyn concentration in each sample was determined by HPLC.
Molecule,duration of interferon release [1],"effect of membrane thickness on release of cromolyn ([2]; 30 vol % cromolyn/PCL membrane (pore-forming agent), FIG. 8)","release from sealed versus unsealed implant ([2]; 30 vol % lactose/PCL membrane, FIG. 9)"
α-interferon,several days,–,–
"O=C(O)c1cc(=O)c2c(OCC(O)COc3cccc4oc(C(=O)O)cc(=O)c34)cccc2o1 [cromolyn, cromolyn sodium]",–,A thicker polymer membrane causes slower release,the unsealed implant releases faster than the sealed
